Test results reported in patent publication US20180179499A1, “BIOBASED PRODUCTION OF FUNCTIONALIZED ALPHA-SUBSTITUTED ACRYLATES AND C4-DICARBOXYLATES” (BIOAMBER INC., priority 2015, published 2018).

B1: LiLeuA: candidate synthase LeuA/CimA, Leptospira interogans, GenBank AAN49401 (protein, UniProt Q72RL9 1-501, looked up)
2-isopropylmalate synthase: MDLKDYVRIFDTTLRDGEQCPGAAMTENEKLEIASQLATMKVDIIEAGFPVSSPVQFQAVERIARETEGPMIAALARAMKADIEAASKALQPAKKRRIHTFIASSPIHMKYKLGKEPKEVLKMAVEAVTLCRQFVDDVEFSPEDATRSEPEFLRELCEAVIAAGATTINIPDTVGYTTPAEYGGLFKFLLSNVRGAEKIIFSAHCHNDLGLATANSLAAVQNGARQIECTINGIGERAGNTAMEEVVMAMRTRKDTFGIQTQIKTEEIARASYLVKTITGMLVQPNKAIVGANAFAHESGIHQDGVIKHRETYEIMKPETVGLSSNRMVLGRHSGRAGFKDRIVKLGFSPQVEELEAAYQRFLEIADRKKEIYDEDIRALFSEEARKSTGDRFQLEGFTVSTGTKSTPTAGVRILIDGHVREESATGDGPVDAIYKAIQKTTGMDPEVSRLVISPVTEGQDAMAEASVTLEYKGDRVVGKGSSTDIIEACSRAYISALNRL
B2: EcLeuA: candidate synthase LeuA, Escherichia coli, GenBank AAC73185 (protein, UniProt P09151 2-523, looked up)
2-isopropylmalate synthase: SQQVIIFDTTLRDGEQALQASLSVKEKLQIALALERMGVDVMEVGFPVSSPGDFESVQTIARQVKNSRVCALARCVEKDIDVAAESLKVAEAFRIHTFIATSPMHIATKLRSTLDEVIERAIYMVKRARNYTDDVEFSCEDAGRTPIADLARVVEAAINAGATTINIPDTVGYTMPFEFAGIISGLYERVPNIDKAIISVHTHDDLGLAVGNSLAAVHAGARQVEGAMNGIGERAGNCSLEEVIMAIKVRKDILNVHTAINHQEIWRTSQLVSQICNMPIPANKAIVGSGAFAHSSGIHQDGVLKNRENYEIMTPESIGLNQIQLNLTSRSGRAAVKHRMDEMGYKESEYNLDNLYDAFLKLADKKGQVFDYDLEALAFIGKQQEEPEHFRLDYFSVQSGSNDIATAAVKLACGEEVKAEAANGNGPVDAVYQAINRITEYNVELVKYSLTAKGHGKDALGQVDIVANYNGRRFHGVGLATDIVESSAKAMVHVLNNIWRAAEVEKELQRKAQHNENNKETV
B3: ScLys20: candidate synthase lys20, Saccharomyces cerevisiae, GenBank CAA58264 (protein, UniProt P48570 1-428, looked up)
Homocitrate synthase, …: MTAAKPNPYAAKPGDYLSNVNNFQLIDSTLREGEQFANAFFDTEKKIEIARALDDFGVDYIELTSPVASEQSRKDCEAICKLGLKAKILTHIRCHMDDAKVAVETGVDGVDVVIGTSKFLRQYSHGKDMNYIAKSAVEVIEFVKSKGIEIRFSSEDSFRSDLVDLLNIYKTVDKIGVNRVGIADTVGCANPRQVYELIRTLKSVVSCDIECHFHNDTGCAIANAYTALEGGARLIDVSVLGIGERNGITPLGGLMARMIVAAPDYVKSKYKLHKIRDIENLVADAVEVNIPFNNPITGFCAFTHKAGIHAKAILANPSTYEILDPHDFGMKRYIHFANRLTGWNAIKARVDQLNLNLTDDQIKEVTAKIKKLGDVRSLNIDDVDSIIKNFHAEVSTPQVLSAKKNKKNDSDVPELATIPAAKRTKPSA
B4: SpLys4mt1: Lys4 mutant D123N, Schizosaccharomyces pombe (protein, UniProt Q9Y823 1-418, looked up, variant D123N)
chain: MSVSEANGTETIKPPMNGNPYGPNPSDFLSRVNNFSIIESTLREGEQFANAFFDTEKKIQIAKALDNFGVDYIELTSPVASEQSRQDCEAICKLGLKCKILTHIRCHMDDARVAVETGVDGVNVVIGTSQYLRKYSHGKDMTYIIDSATEVINFVKSKGIEVRFSSEDSFRSDLVDLLSLYKAVDKIGVNRVGIADTVGCATPRQVYDLIRTLRGVVSCDIECHFHNDTGMAIANAYCALEAGATHIDTSILGIGERNGITPLGALLARMYVTDREYITHKYKLNQLRELENLVADAVEVQIPFNNYITGMCAFTHKAGIHAKAILANPSTYEILKPEDFGMSRYVHVGSRLTGWNAIKSRAEQLNLHLTDAQAKELTVRIKKLADVRTLAMDDVDRVLREYHADLSDADRITKEASA
B5: SpLys4mt2: Lys4 mutant D123N, V125F, Schizosaccharomyces pombe (protein, UniProt Q9Y823 1-418, looked up, variant D123N V125F)
chain: MSVSEANGTETIKPPMNGNPYGPNPSDFLSRVNNFSIIESTLREGEQFANAFFDTEKKIQIAKALDNFGVDYIELTSPVASEQSRQDCEAICKLGLKCKILTHIRCHMDDARVAVETGVDGVNVFIGTSQYLRKYSHGKDMTYIIDSATEVINFVKSKGIEVRFSSEDSFRSDLVDLLSLYKAVDKIGVNRVGIADTVGCATPRQVYDLIRTLRGVVSCDIECHFHNDTGMAIANAYCALEAGATHIDTSILGIGERNGITPLGALLARMYVTDREYITHKYKLNQLRELENLVADAVEVQIPFNNYITGMCAFTHKAGIHAKAILANPSTYEILKPEDFGMSRYVHVGSRLTGWNAIKSRAEQLNLHLTDAQAKELTVRIKKLADVRTLAMDDVDRVLREYHADLSDADRITKEASA

Tests used:
[1] = tested on: potential yeast hosts (I. orientalis, S. cerevisiae); assay: Tolerance of potential yeast hosts: maximum concentration in which growth was detected; format: cell-based
Method: (§1) Two eukaryotic strains, I. orientalis and S. cerevisiae, were tested at pH 3 and pH 5. Three bacterial strains were tested using their individual optimal conditions. E. coli and C. glutamicum were tested at pH 8 and 30° C., and B. firmus was tested at pH 9 and 37° C. I. orientalis was grown in defined yeast media consisting of 5 g/L ammonium sulfate, 0.5 g/L magnesium sulfate heptahydrate, 3 g/L potassium phosphate monobasic, 10 g/L dextrose, 1 mL/L of 10% glycerol stock, 1 mL/L of 1000× trace. The 1000× trace stock solution contains 4 g/L ZnSO4.7H2O, 2 g/L FeSO4.7H2O, 1 g/L MnSO4.H2O, 0.2 g/L CuSO4.5H2O, and 0.8 mL/L H2SO4. S. cerevisiae was grown in buffered defined dextrose media consisting of 50 g/L dextrose, 5 g/L yeast extract, and 40 mL/L 25× DM salts. The 25× DM salt stock solution contains 125 g/L ammonium sulfate, 12.5 g/L magnesium sulfate heptahydrate, 75 g/L potassium phosphate monobasic, and 787.5 g/L water. The bacterial strains were grown in standard LB media consisting of 10 g/L bacto-tryptone, 5 g/L yeast extract, 10 g/L NaCl, and 20 g/L dextrose with addition of 20 g/L glucose.
(§2) Time points were taken over a period of at least 8 hours and up to 24 hours to calculate the rate of growth. Specific growth rate was determined by plotting the natural logarithm of cell number against time. Tolerance was determined by growth rate of cells in the presence of the compound as compared to in the absence of the compound.
(§3) Two eukaryotic strains, I. orientalis and S. cerevisiae, were tested for tolerance to the selected compounds at pH 3 and pH 5. The bacterial strains were grown at their individual optimal conditions, E coli and C. glutamicum at pH 8 and 30° C., and B. firmus and B. cohnii at pH 9 and 37° C. I. orientalis was grown in defined yeast media consisting of 5 g/L ammonium sulfate, 0.5 g/L magnesium sulfate heptahydrate, 3 g/L potassium phosphate monobasic, 10 g/L dextrose, 1 mL/L of 10% glycerol stock, 1 mL/L of 1000× trace. The 1000× trace stock solution contains 4 g/L ZnSO4.7H2O, 2 g/L FeSO4.7H2O, 1 g/L MnSO4.H2O, 0.2 g/L CuSO4.5H2O, and 0.8 mL/L H2SO4. S. cerevisiae was grown in buffered defined dextrose media consisting of 50 g/L dextrose, 5 g/L yeast extract, and 40 mL/L 25×DM salts. The 25×DM salt stock solution contains 125 g/L ammonium sulfate, 12.5 g/L magnesium sulfate heptahydrate, 75 g/L potassium phosphate monobasic, and 787.5 g/L water. The bacterial strains were grown in standard LB media consisting of 10 g/L bacto-tryptone, 5 g/L yeast extract, 10 g/L NaCl, and 20 g/L dextrose with addition of 20 g/L glucose.
as §2

[2] = tested on: potential bacterial hosts (E. coli, C. glutamicum, B. firmus, B. cohnii); assay: Tolerance of potential bacterial hosts: highest concentration with growth observed; format: cell-based; conditions: Table L
Method: as §1, §2, §3, §2

[3] = Synthase activity assay (DTNB, lysates of BL21 E. coli expressing the candidate); format: biochemical; conditions: 0.5 mM hydroxypyruvate
Method: E coli optimized genes encoding synthases were synthesized and cloned into pTrcHisA (Life Technologies (formerly Invitrogen)). Synthase genes tested are found in Table G. Plasmids containing the optimized synthase genes were transformed into BL21 E. coli cells. Empty plasmid pTrcHisA was also transformed as a negative control. […]. Flasks were incubated at 30° C. at 250 rpm shaking for 2 hours, then protein production was induced with 0.2 mM IPTG and incubated for 4 more hours at 30° C. while shaking. Cells were harvested by centrifugation and pellets were stored at −80° C.
Activity of synthase candidates was assessed with an in vitro assay using DTNB (5,5′-Dithiobis(2-nitrobenzoic acid)) as an indicator. The enzyme activity was tested using either no substrate or hydroxypyruvate as the substrate. The DTNB interacts with the free thio created by the condensation of acetyl-CoA and the substrate present. Unless otherwise specified, all chemicals were purchased from Sigma-Aldrich Chemical Company, St. Louis, Mo.
Cells were lysed using mechanical disruption using a BeadBeater (BopSpec products, Bartlesville, Okla.) following the manufacturer's instructions. The cell lysate was partially clarified by centrifugation (14,000G for 5 minutes). Protein concentrations of the resulting clarified lysates were measured via BioRad total Protein assay using the manufacturer's instructions. Lysates were normalized by protein concentration in 100 mM Tris buffer. The normalized lysates were diluted 1 to 7 in 100 mM Tris buffer. 20 μl of lysate was added to each well for the 96-well plate assay. Each condition was performed in triplicate.
The reaction mixture contains 100 mM Tris pH 7.4, 5 mM MgSO4, 0.2 mM acetyl-CoA, 0.5 mM DTNB, 0.5 mM substrate, hydroxypyruvate. To start the reaction, 180 μl of reaction mix was added to each well already containing 20 μl lysate. The reactions in these microplates were monitored at 412 nm. Readings were taken every 9 seconds for 10 minutes and the data was used to calculate activities of each enzyme. Synthase activity was observed when hydroxypyruvate was the substrate as compared to cells containing empty vector (FIG. 20(a), Table G). Background absorbance as measured by the same reaction with no substrate present were subtracted. Error bars in the graphs reflect the standard deviations calculated for the averages for each condition performed in triplicate. Specific mutations change the activity of the enzymes tested (FIG. 20(b), Table H). Further enzyme engineering will improve specificity and activity of desired enzymatic reaction.

[4] = Table G, 0.2 mM acetyl-CoA, pH 7.4, no-substrate background subtracted
[5] = Table H, wild type and mutant synthases

Molecule | Max conc (maximum concentration in which growth was detected) ([1]; Table K) [g/L] | Max conc (maximum concentration in which growth was detected) [2] [g/L] | other results
CC(C)C(O)(CC(=O)O)C(=O)O (stereo not shown) [2-isopropylmalic acid] |  |  | Max conc (maximum concentration in which growth was detected) ([1]; Table E): 50 g/L
CC(C)C(C(=O)O)C(O)C(=O)O (stereo not shown) [3-isopropylmalic acid] |  |  | Max conc (maximum concentration in which growth was detected) ([1]; Table E): 50 g/L
C=C(CO)C(=O)OCC [Ethyl hydroxymethyl acrylate] | 20 |  | 
C=CC(=O)OCCO [Hydroxyethyl acrylate] | 5 | 20 | 
C=CC(=O)OCO [Hydroxymethyl acrylate] | 20 | 20 | 
C=C1CCOC1=O [MBL] | 5 | 5 | 
C=C1CC(C)OC1=O (stereo not shown) [MeMBL, methyl 2-methylene 4 butyrolactone] | 5 | 5 | 
AvNifV: candidate synthase NifV, Azotobacter vinelandii, GenBank AAA22169 |  |  | Activity with hydroxy pyruvate [3, 4]: 0.054 µmol/min/mg
Methyl hydroxyethyl acrylate | 5 | 20 | 
B1 |  |  | Activity with hydroxy pyruvate [3, 4]: 0.045 µmol/min/mg
B2 |  |  | Activity with hydroxy pyruvate [3, 4]: 0.022 µmol/min/mg
B3 |  |  | Activity with hydroxy pyruvate [3, 4]: 0.095 µmol/min/mg
B4 |  |  | Activity with hydroxy pyruvate [3, 5]: 0.004
B5 |  |  | Activity with hydroxy pyruvate [3, 5]: 0.009
